According to publication PMC8400920, “Metabolism of Diterpenoids Derived from the Bark of Cinnamomum cassia in Human Liver Microsomes” (Pharmaceutics, 2021):
Counter-ions that a name gives are not always drawn.

How the values were obtained:
[1] = system: human liver microsomes (HLMs); assay: Metabolic stability of seven diterpenoids in human liver microsomes; format: in vitro ADME; settings: 10 µM, 0.5 mg/mL HLMs, NGS, 37 °C
Protocol: For metabolism profiling, 10 µM of each of the seven compounds isolated from C. cassia bark was added to 0.5 mg/mL of pooled HLMs and 0.1 M potassium phosphate buffer (pH 7.4). The HLMs were then preincubated at 37 °C for 1 min. After adding NGS, the reaction mixture was incubated at 37 °C for 60 min. After the 60 min incubation period, 50 µL of the reaction mixture was transferred to a new tube, and 50 µL of 100% ACN containing 0.1% formic acid and tolbutamide (internal standard) was added to terminate the reaction. The mixture was then vortexed, followed by centrifugation at 15,700× g (13,000 rpm) for 10 min (Eppendorf AG, Hamburg, Germany). Finally, 90 µL of the supernatant was transferred to a vial and injected into a C18 column for LC–MS/MS analysis.
The metabolism screening of the seven compounds was performed using an HPLC system (Thermo Fisher Scientific, Bremen, Germany) equipped with an HPG-3200SD standard binary pump, a WPS-3000 TRS analytical autosampler, and a TCC-3000 SD column compartment. The HPLC system was coupled with an HR-MS (Q-Exactive Focus Quadrupole-Orbitrap MS; Thermo Fisher Scientific, Waltham, MA, USA) at the Mass Spectrometry Convergence Research Center. The full MS resolution and scan ranges were 70,000 and 60–900 m/z, respectively. The MS/MS resolution was 35,000. The mass spectra were obtained in negative ion electrospray mode. A heated electrospray ionization (HESI-II) probe was used as an ion generator, with nitrogen as the sheath gas at 35 aux units and auxiliary gas at 12 aux units. The mass spectrometer was operated in negative ionization mode. The other parameters were as follows: spray voltage, 3.5 kV; capillary temperature, 320 °C; S-lens radio frequency level, 50; and aux gas heater temperature, 400 °C.
The mobile phase consisted of 100% water with 0.1% formic acid (mobile phase A) and 100% ACN with 0.1% formic acid (mobile phase B). For metabolic stability, the gradient conditions were set as follows: 5% of B at 0.5–2.0 min, 5–50% of B at 2.0–4.5 min, 50% of B at 4.5–7.0 min, and 50–5% of B at 7.0–10.0 min at 40 °C with a flow rate of 0.2 mL/min. For metabolite identification, the gradient conditions were as follows: 10% of B at 0–5 min, 10–55% of B at 5–15 min, 55% of B at 15–23 min, and 55–10% of B at 23–30 min with a flow rate of 0.25 mL/min. Chromatographic separation was performed using a Kinetex C18 column (150 × 2.1 mm, 2.6 μm, XB-C18 100 Å, S/No: H19-070128; Phenomenex, Torrance, CA, USA). Data were analyzed using Xcalibur version 4.0 software (Thermo Fisher Scientific, Waltham, MA, USA).
To confirm their metabolic stability, seven diterpenoids (AHC, anhydrocinnzeylanol, cinncassiol A, cinncassiol B, cinnzeylanol, cinnzeylanone, and cinnzeylanine) derived from the bark of C. cassia were incubated with HLMs in the presence of the NGS for 60 min (Figure 1B). The metabolic stability of each compound was determined according to the ratio of the peak area at 60 min to that at 0 min. […] Therefore, we identified the metabolites of AHC produced in HLMs.

CYPs = assay: Metabolism of AHC in HLMs with SKF-525A, a nonselective CYP inhibitor; format: in vitro ADME, human; settings: 10 µM AHC, 1 mg/mL HLMs, NGS, 60 min
Protocol: To investigate CYP-mediated metabolism, 10 µM AHC was mixed with 1 mg/mL pooled HLMs and 0.1 M potassium phosphate buffer (pH 7.4). Then, SKF-525A, a general inhibitor of CYPs, was added at concentrations of 0.5, 1, and 5 mM. The reactions were initiated with the addition of NGS at […] for 60 min. After 60 min, the reactions were terminated by adding 400 µL of 100% acetonitrile. The mixtures were then centrifuged at 15,700× g for 10 min. Subsequently, 550 µL of supernatant was dried in a vacuum concentrator. The residue was dissolved in 100 µL of 20% MeOH (0.1% formic acid), and 5 µL of this sample was injected into a C18 column for LC–MS/MS analysis.
To confirm the metabolism of AHC by CYP enzymes, AHC was incubated in HLMs with SKF-525A, i.e., a nonspecific CYP inhibitor (Figure S7). […] Consequently, as the metabolism of AHC was inhibited by SKF-525A treatment, the production of all metabolites was reduced in an SKF-525A concentration-dependent manner.

effect of SKF-525A on the metabolism of AHC in HLMs (CYPs) | SMILES | decrease of stability in HLMs (peak area 60 min vs 0 min) [1] | fraction metabolized in HLMs (metabolized by) ([1]; 60 min) [%]
 | CC1CCC2(O)C3(C)CC4(O)OC2(C1=O)C1(O)C3(O)CC(O)(C(C)C)C41C (stereo not shown) [cinnzeylanone] | approximately 20% | 
 | CC1=C(C(C)C)C[C@@]2(O)[C@@]3(C)CC(=O)O[C@@]4([C@H](O)[C@@H](C)CC[C@]34O)[C@@]12O [anhydrocinnzeylanol] | approximately 20% | 20
inhibited | CCCC(C(=O)OCCN(CC)CC)(c1ccccc1)c1ccccc1 [SKF-525A, proadifen hydrochloride, reference compound] |  | 
